Key:
[1] = molecular target: T1, human Menin and N-terminal portion of human MLL (amino acids 4-43) (Homo sapiens, UniProt O00255); assay: Menin-MLL competition assay (HTRF); type: binding; conditions: 1 hr incubation
T1 construct: H-FL-Menin diluted to 4 nM in assay buffer
T1 sequence (O00255 1-610): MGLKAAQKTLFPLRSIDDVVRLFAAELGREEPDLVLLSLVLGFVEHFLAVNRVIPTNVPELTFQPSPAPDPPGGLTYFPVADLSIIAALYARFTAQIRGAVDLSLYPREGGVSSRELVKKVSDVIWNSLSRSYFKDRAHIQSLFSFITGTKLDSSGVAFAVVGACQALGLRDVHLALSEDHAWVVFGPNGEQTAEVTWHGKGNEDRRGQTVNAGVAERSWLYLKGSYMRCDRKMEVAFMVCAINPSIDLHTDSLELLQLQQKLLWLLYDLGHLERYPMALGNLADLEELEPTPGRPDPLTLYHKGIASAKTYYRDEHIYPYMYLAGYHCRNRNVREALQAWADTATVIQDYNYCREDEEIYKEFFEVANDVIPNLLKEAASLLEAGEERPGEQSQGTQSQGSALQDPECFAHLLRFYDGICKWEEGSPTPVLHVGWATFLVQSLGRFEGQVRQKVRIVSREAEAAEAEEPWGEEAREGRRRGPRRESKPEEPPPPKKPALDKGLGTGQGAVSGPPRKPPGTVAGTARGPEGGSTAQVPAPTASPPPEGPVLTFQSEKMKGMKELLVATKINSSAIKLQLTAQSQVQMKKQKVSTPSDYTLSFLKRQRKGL
How it was run: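 HTRF competition: 1 nM His-tagged full-length Menin with 2 nM Tb-anti-His6 and 1 nM FITC-MLL(4-43), 1 h at room temperature in Tris pH 7.4 buffer with DTT, BSA, Triton X-100; 3.16-fold compound series, 2% DMSO. Ratio 520/485 normalized to DMSO and 1 μM reference-compound controls for IC50.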

hERG = hERG (Homo sapiens, UniProt Q12809); assay: Patch clamp assay (hERG tail currents, whole-cell)
Chain of hERG (Q12809 whole entry): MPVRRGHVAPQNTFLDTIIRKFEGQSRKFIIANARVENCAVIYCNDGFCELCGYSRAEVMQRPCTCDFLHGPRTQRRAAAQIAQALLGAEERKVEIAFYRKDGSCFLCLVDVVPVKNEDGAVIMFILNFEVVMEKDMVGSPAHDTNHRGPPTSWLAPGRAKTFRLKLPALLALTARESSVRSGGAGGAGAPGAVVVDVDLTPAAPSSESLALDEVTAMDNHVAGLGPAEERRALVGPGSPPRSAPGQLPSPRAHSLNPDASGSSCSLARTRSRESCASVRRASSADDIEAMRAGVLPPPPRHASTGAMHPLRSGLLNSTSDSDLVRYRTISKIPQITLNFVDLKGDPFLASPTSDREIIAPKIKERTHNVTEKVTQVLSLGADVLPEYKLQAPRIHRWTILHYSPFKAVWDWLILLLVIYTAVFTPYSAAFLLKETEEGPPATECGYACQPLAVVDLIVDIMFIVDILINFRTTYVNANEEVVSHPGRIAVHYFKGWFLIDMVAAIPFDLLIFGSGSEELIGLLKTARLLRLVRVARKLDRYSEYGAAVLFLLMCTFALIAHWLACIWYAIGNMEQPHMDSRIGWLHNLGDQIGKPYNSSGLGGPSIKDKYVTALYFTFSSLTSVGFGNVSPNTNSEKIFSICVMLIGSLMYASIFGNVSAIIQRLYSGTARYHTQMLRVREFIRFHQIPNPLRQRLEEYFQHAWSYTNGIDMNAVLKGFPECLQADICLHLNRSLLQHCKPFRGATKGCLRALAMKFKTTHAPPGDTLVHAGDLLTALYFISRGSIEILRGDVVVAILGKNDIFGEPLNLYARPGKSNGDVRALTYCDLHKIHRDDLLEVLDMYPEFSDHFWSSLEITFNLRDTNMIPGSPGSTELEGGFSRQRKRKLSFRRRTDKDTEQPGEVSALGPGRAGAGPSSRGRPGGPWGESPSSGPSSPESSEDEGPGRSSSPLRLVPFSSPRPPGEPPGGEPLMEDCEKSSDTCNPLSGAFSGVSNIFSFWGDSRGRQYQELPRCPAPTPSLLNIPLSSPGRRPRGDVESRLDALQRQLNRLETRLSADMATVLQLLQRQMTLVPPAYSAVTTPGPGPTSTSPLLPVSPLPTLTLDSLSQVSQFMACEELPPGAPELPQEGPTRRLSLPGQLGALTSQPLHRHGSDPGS

Row | SMILES | IC50 [1] [nM] | hERG % Remaining (hERG; 10 μM compound) | hERG % Remaining (hERG; 30 μM compound) | hERG % Remaining (hERG; 1 μM compound) | hERG % Remaining (hERG; 3 μM compound) | hERG % Remaining (hERG; 100 μM compound)
1 | CCN(C(=O)c1cc(F)ccc1Oc1cncnc1N1CC2(CCN(C[C@@H]3CC[C@@H](NS(=O)(=O)C4CCC4)CO3)CC2)C1)C(C)C [Example 6, 2-((4-(7-(((2S,5R)-5-(Cyclobutanesulfonamido)tetrahydro-2H-pyran-2-yl)methyl)-2,7-diazaspiro[3.5]nonan-2-yl)pyrimidin-5-yl)oxy)-N-ethyl-5-fluoro-N-isopropylbenzamide] | < 100 | +++ (≥66%) | ++ (233% and ≤66%) |  |  | 
2 | CC(C)N(C(=O)c1cc(F)ccc1Oc1cncnc1N1CC2(CCN(C[C@@H]3CC[C@@H](NS(C)(=O)=O)CO3)CC2)C1)C(C)C [Example 12, 5-Fluoro-N,N-diisopropyl-2-((4-(7-(((2S,5R)-5-(methylsulfonamido)tetrahydro-2H-pyran-2-yl)methyl)-2,7-diazaspiro[3.5]nonan-2-yl)pyrimidin-5-yl)oxy)benzamide] | < 100 | +++ (≥66%) | +++ (≥66%) | +++ (≥66%) | +++ (≥66%) | ++ (233% and ≤66%)
3 | CCS(=O)(=O)N[C@@H]1CC[C@@H](CN2CCC3(CC2)CN(c2ncncc2Oc2ccc(F)cc2C(=O)N(C(C)C)C(C)C)C3)OC1 [Example 13, 2-((4-(7-(((2S,5R)-5-(Ethylsulfonamido)tetrahydro-2H-pyran-2-yl)methyl)-2,7-diazaspiro[3.5]nonan-2-yl)pyrimidin-5-yl)oxy)-5-fluoro-N,N-diisopropylbenzamide] | < 100 | +++ (≥66%) | ++ (233% and ≤66%) | +++ (≥66%) | +++ (≥66%) | ++ (233% and ≤66%)
4 | CC(C)N(C(=O)c1cc(F)ccc1Oc1cncnc1N1CC2(CCN(C[C@@H]3CC[C@@H](NS(=O)(=O)C(C)C)CO3)CC2)C1)C(C)C [Example 14, 5-Fluoro-N,N-diisopropyl-2-((4-(7-(((2S,5R)-5-((1-methylethyl)sulfonamido)tetrahydro-2H-pyran-2-yl)methyl)-2,7-diazaspiro[3.5]nonan-2-yl)pyrimidin-5-yl)oxy)benzamide] | < 100 | +++ (≥66%) | ++ (233% and ≤66%) |  | +++ (≥66%) | + (<33%)
5 | CC(C)N(C(=O)c1cc(F)ccc1Oc1cncnc1N1CC2(CCN(C[C@@H]3CC[C@@H](NS(=O)(=O)C4CC4)CO3)CC2)C1)C(C)C [Example 15, 2-((4-(7-(((2S,5R)-5-(Cyclopropanesulfonamido)tetrahydro-2H-pyran-2-yl)methyl)-2,7-diazaspiro[3.5]nonan-2-yl)pyrimidin-5-yl)oxy)-5-fluoro-N,N-diisopropylbenzamide] | < 100 | +++ (≥66%) | ++ (233% and ≤66%) |  | +++ (≥66%) | + (<33%)
6 | CC(C)N(C(=O)c1cc(F)ccc1Oc1cncnc1N1CC2(CCN(C[C@@H]3CC[C@@H](NS(=O)(=O)C4COC4)CO3)CC2)C1)C(C)C [Example 16, 5-Fluoro-N,N-diisopropyl-2-((4-(7-(((2S,5R)-5-(oxetane-3-sulfonamido)tetrahydro-2H-pyran-2-yl)methyl)-2,7-diazaspiro[3.5]nonan-2-yl)pyrimidin-5-yl)oxy)benzamide] | < 100 | +++ (≥66%) | +++ (≥66%) |  |  | 
7 | CCS(=O)(=O)N[C@@H]1CC[C@@H](CN2CCC3(CC2)CN(c2ncncc2Oc2ccc(F)cc2C(=O)N(C(C)C)C2CC2)C3)OC1 [Example 19, N-Cyclopropyl-2-((4-(7-(((2S,5R)-5-(ethylsulfonamido)tetrahydro-2H-pyran-2-yl)methyl)-2,7-diazaspiro[3.5]nonan-2-yl)pyrimidin-5-yl)oxy)-5-fluoro-N-isopropylbenzamide] | < 100 | +++ (≥66%) | ++ (233% and ≤66%) |  |  | 
8 | CC(C)N(C(=O)c1cc(F)ccc1Oc1cncnc1N1CC2(CCN(C[C@@H]3CC[C@@H](NS(=O)(=O)C4CC4)CO3)CC2)C1)C1CC1 [Example 21, 2-((4-(7-(((2S,5R)-5-(Cyclopropanesulfonamido)tetrahydro-2H-pyran-2-yl)methyl)-2,7-diazaspiro[3.5]nonan-2-yl)pyrimidin-5-yl)oxy)-N-cyclopropyl-5-fluoro-N-isopropylbenzamide] | < 100 | ++ (233% and ≤66%) | + (<33%) |  |  | 
9 | CCS(=O)(=O)N[C@@H]1CC[C@@H](CN2CCC3(CC2)CN(c2ncncc2Oc2ccc(F)cc2C(=O)N(C(C)C)[C@H]2CCOC2)C3)OC1 [Example 33, 2-((4-(7-(((2S,5R)-5-(Ethylsulfonamido)tetrahydro-2H-pyran-2-yl)methyl)-2,7-diazaspiro[3.5]nonan-2-yl)pyrimidin-5-yl)oxy)-5-fluoro-N-isopropyl-N-((S)-tetrahydrofuran-3-yl)benzamide] | < 100 | +++ (≥66%) | +++ (≥66%) |  |  | 
10 | CCS(=O)(=O)N[C@@H]1CC[C@@H](CN2CCC3(CC2)CN(c2ncncc2Oc2ccc(F)cc2C(=O)N(CC(F)F)C(C)C)C3)OC1 [Example 34, N-(2,2-Difluoroethyl)-2-((4-(7-(((2S,5R)-5-(ethylsulfonamido)tetrahydro-2H-pyran-2-yl)methyl)-2,7-diazaspiro[3.5]nonan-2-yl)pyrimidin-5-yl)oxy)-5-fluoro-N-isopropylbenzamide] | < 100 | +++ (≥66%) | ++ (233% and ≤66%) | +++ (≥66%) | +++ (≥66%) | + (<33%)
11 | CCS(=O)(=O)N[C@@H]1CC[C@@H](CN2CCC3(CC2)CN(c2ncncc2Oc2ccc(F)cc2C(=O)N(CCC#N)C(C)C)C3)OC1 [Example 43, N-(2-Cyanoethyl)-2-((4-(7-(((2S,5R)-5-(ethylsulfonamido)tetrahydro-2H-pyran-2-yl)methyl)-2,7-diazaspiro[3.5]nonan-2-yl)pyrimidin-5-yl)oxy)-5-fluoro-N-isopropylbenzamide] | < 100 | +++ (≥66%) | ++ (233% and ≤66%) |  |  | 
12 | CCS(=O)(=O)N[C@@H]1CC[C@@H](CN2CCC3(CC2)CN(c2ncncc2Oc2ccc(F)cc2C(=O)N(C(C)C)C2CC(F)(F)C2)C3)OC1 [Example 44, N-(3,3-Difluorocyclobutyl)-2-((4-(7-(((2S,5R)-5-(ethylsulfonamido)tetrahydro-2H-pyran-2-yl)methyl)-2,7-diazaspiro[3.5]nonan-2-yl)pyrimidin-5-yl)oxy)-5-fluoro-N-isopropylbenzamide] | < 100 | +++ (≥66%) | ++ (233% and ≤66%) |  |  | 
13 | CCN(C(=O)c1cc(F)ccc1Oc1cncnc1N1CC2(CCN(C[C@@H]3CC[C@@H](NS(=O)(=O)c4ccccc4)CO3)CC2)C1)C(C)C [Example 45, N-Ethyl-5-fluoro-N-isopropyl-2-((4-(7-(((2S,5R)-5-(phenylsulfonamido)tetrahydro-2H-pyran-2-yl)methyl)-2,7-diazaspiro[3.5]nonan-2-yl)pyrimidin-5-yl)oxy)benzamide] | < 100 | ++ (233% and ≤66%) | + (<33%) |  |  | 

— US20240400564A1 (Syndax Pharmaceuticals, Inc, priority 2021, published 2024)
